Measurements taken from ChEMBL document CHEMBL1201862, “PubChem BioAssay data set” (2004).
Counter-ions that a name gives are not always drawn.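 Results reflect a 48-hour exposure of cells in 96-well plates to compound at five concentrations. Here, GI50 denotes the concentration required for 50% inhibition of growth.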 Calls of active or inactive are those of the source. No stated cut-off is given here; in the data, active = GI50 up to about 1.1 µM and inactive = higher.

Tests used:
Assay in all cases: growth of human tumour cells (NCI), 48 h
CCRF-CEM = system: CCRF-CEM
HL-60 = system: HL-60
HCT-116 = system: HCT-116
SNB-78 = system: SNB-78
XF498 = system: XF498
SR = system: SR
KM-20L2 = system: KM-20L2
K562 = system: K562
HOP-92 = system: HOP-92
UACC-257 = system: UACC-257
DLD-1 = system: DLD-1
TK-10 = system: TK-10
ACHN = system: ACHN
U-251 = system: U-251
DMS-273 = system: DMS-273
MDA-MB-435 = system: MDA-MB-435
A498 = system: A498
NCI-H226 = system: NCI-H226
HOP-18 = system: HOP-18
CAKI-1 = system: CAKI-1
M14 = system: M14
OVCAR-8 = system: OVCAR-8
BT-549 = system: BT-549
NCI-H522 = system: NCI-H522
UO-31 = system: UO-31
786-0 = system: 786-0
NCI-H460 = system: NCI-H460
HOP-62 = system: HOP-62
MDA-N = system: MDA-N
OVCAR-3 = system: OVCAR-3
EKVX = system: EKVX
UACC-62 = system: UACC-62
OVCAR-5 = system: OVCAR-5
M19-MEL = system: M19-MEL
SW-620 = system: SW-620
COLO 205 = system: COLO 205
SF-295 = system: SF-295
SK-MEL-28 = system: SK-MEL-28
T47D = system: T47D
OVCAR-4 = system: OVCAR-4
RXF 393 = system: RXF 393
SK-MEL-2 = system: SK-MEL-2
IGROV-1 = system: IGROV-1
MOLT-4 = system: MOLT-4
NCI-H23 = system: NCI-H23
SF-268 = system: SF-268
HCC 2998 = system: HCC 2998
A549 = system: A549
MCF7 = system: MCF7
HCT-15 = system: HCT-15
SNB-19 = system: SNB-19
SF-539 = system: SF-539
SNB-75 = system: SNB-75
SN12C = system: SN12C
LOX IMVI = system: LOX IMVI
NCI/ADR-RES = system: NCI/ADR-RES
DU-145 = system: DU-145
LXFL 529 = system: LXFL 529
MDA-MB-231 = system: MDA-MB-231
KM12 = system: KM12
RPMI-8226 = system: RPMI-8226
Malme-3M = system: Malme-3M
SK-MEL-5 = system: SK-MEL-5
HT-29 = system: HT-29
SK-OV-3 = system: SK-OV-3
PC-3 = system: PC-3

Measured: GI50

O=C1c2c(O)ccc(O)c2C(=O)c2c(NCCNCCO)ccc(NCCNCCO)c21 [MITOXANTRONE HYDROCHLORIDE]
active: CCRF-CEM 0.00598 µM | HL-60 0.0103 µM | HCT-116 0.0553 µM | SNB-78 0.204 µM | XF498 0.0136 µM | SR 0.00764 µM | KM-20L2 0.384 µM | K562 0.118 µM | HOP-92 0.0177 µM | DLD-1 0.491 µM | TK-10 0.423 µM | ACHN 0.0115 µM | U-251 0.0091 µM | DMS-273 0.0119 µM | MDA-MB-435 0.471 µM | A498 0.0619 µM | NCI-H226 0.0153 µM | HOP-18 0.126 µM | CAKI-1 0.00899 µM
inactive: UACC-257 1.89 µM

COc1ccc(C2C(Cl)C(=O)N2NC(=O)c2ccc(N)cc2)cc1OC (stereo not given)
7.46 µM: HCT-15
active: XF498 1 µM
inactive: M14 8.43 µM | OVCAR-8 4.08 µM | BT-549 5.04 µM | NCI-H522 1.98 µM | CCRF-CEM 1.71 µM | UO-31 12.1 µM | HL-60 1.64 µM | 786-0 2.43 µM | HCT-116 1.5 µM | NCI-H460 20.1 µM | HOP-62 15.9 µM | SNB-78 63.7 µM | MDA-N 9.46 µM | OVCAR-3 5.85 µM | EKVX 16.5 µM | UACC-62 7.29 µM | OVCAR-5 19.1 µM | M19-MEL 4.95 µM | SW-620 3.27 µM | COLO 205 11.9 µM | SF-295 7.16 µM | SK-MEL-28 2.48 µM | T47D 11.1 µM | OVCAR-4 5.69 µM | RXF 393 15.3 µM | SK-MEL-2 11.9 µM | SR 2.2 µM | IGROV-1 1.36 µM | MOLT-4 1.96 µM | NCI-H23 6.08 µM | KM-20L2 12.1 µM | SF-268 10.9 µM | K562 3.12 µM | HCC 2998 8.11 µM | HOP-92 2 µM | A549 15.4 µM | UACC-257 14.5 µM | MCF7 9.84 µM | SNB-19 13.9 µM | DLD-1 3.66 µM | TK-10 17 µM | SF-539 7.8 µM | SNB-75 15.6 µM | SN12C 9.95 µM | ACHN 13.7 µM | U-251 2.72 µM | LOX IMVI 1.5 µM | NCI/ADR-RES 1.97 µM | DMS-273 2.72 µM | DU-145 16.4 µM | LXFL 529 1.95 µM | MDA-MB-231 14.7 µM | KM12 1.52 µM | MDA-MB-435 5.87 µM | RPMI-8226 3.1 µM | Malme-3M 12.5 µM | SK-MEL-5 12.2 µM | HT-29 2.53 µM | A498 16.6 µM | NCI-H226 18.7 µM | CAKI-1 2.92 µM | SK-OV-3 18.8 µM | PC-3 12.9 µM
